Test results taken from patent EP1733731A1, “New uses of Glycerol derivatives in particular in cosmetics” (AGRO INDUSTRIE RECHERCHES ET DEVELOPPEMENTS (A.R.D.), priority 2005, dated 2006).

Test system: proMMP-1
Experiment: activation of proMMP-1 by plasmin in cultured dermal fibroblasts (western blot)
Assay type: cell-based
Settings: 25 µg/mL; 2,5 µg/mL plasmin; Figure 1C-4
Method: • La Figure 1 représente la modulation de l'activation des proMMP-3 (Figures 1A et 1B) et proMMP-1 (Figure 1C) in vitro comme en culture par des extraits glycolipidiques du gluten de blé. • Figure 1A : 100 nM de proMMP-3 (Figure 1A-1) sont incubés avec 65 nM de plasmine en absence (Figure 1A-2) ou en présence de glycolipides (Figure 1A-3 et 4), à la concentration de 50µg/mL pour M1-Sucres (Figure 1A-3) et 25 µg/mL pour ED 23-11 (Figure 1A-4). • Figure 1B : des fibroblastes dermiques sont ensemencés en plaque 24 puits à raison de […] cellules par puits jusque confluence. Après une mise au repos de 18 heures, les cellules sont incubées en présence (Figure 1B-2, 3 et 4) ou non (Figure 1B-1) de 2,5 µg/mL de plasmine ainsi que des glycolipides M1(-Sucres) (Figure 1B-3) et ED 23-11 (Figure 1B-4) aux mêmes concentrations que précédemment. • Figure 1C : des fibroblastes dermiques sont ensemencés en plaque 24 puits à raison de […] cellules par puits jusque confluence. Après une mise au repos de 18 heures, les cellules sont incubées en présence (Figure 1C-2, 3 et 4) ou non (Figure 1C-1) de 2,5 µg/mL de plasmine ainsi que des glycolipides M1(-Sucres) (Figure 1C-3) et ED 23-11 (Figure 1C-4) aux mêmes concentrations que précédemment. Dans l'ensemble des figures 1A, 1B et 1C, la réaction est arrêtée aux temps indiqués par addition de 0,3 mg/ml d'aprotinine. […]

## CCCCC/C=C\C/C=C\CCCCCCCCOC[C@H](CO[C@@H]1O[C@H](COC(=O)CCCCCCCCCCCCCCC)[C@H](O)[C@H](O)[C@H]1O)OCCCCCCCC/C=C\C/C=C\CCCCC [ED23-11, 1,2-di-O-linoléyl-3-O-[6'-O-palmitoyl-β-D-galactopyranosyl]-sn-glycérol]
  activation de la proMMP-1: inhibition significative
